In article PMC6506387 (Structure (London, England : 1993), 2019):

Key:
wt PKAcα [1] = target: T1, wt PKAcα (Homo sapiens, UniProt P17612); settings: 1 mM ATP, 10 mM MgCl2, 20 mM MOPS pH 7.0, 150 mM NaCl, 0.5 °C/min
wt PKAcα [2] = target: T1, wt PKAcα; settings: 20 mM MOPS pH 7.0, 150 mM NaCl; ATP 0-0.75 mM

Nc1ncnc2c1ncn2[C@@H]1O[C@H](COP(=O)(O)OP(=O)(O)OP(=O)(O)O)[C@@H](O)[C@H]1O [ATP]
thermal shift (wt PKAcα [1]): stabilities of apo PKAcα or J-PKAcα subunits and its ATP and/or peptide binding forms | dissociation constant (wt PKAcα [2]): ATP dissociation constants were determined using the ThermoFluor assay.
